From patent US20190209506A1, “METHODS OF REDUCING OR PREVENTING OXIDATION OF LDL OR LIPID MEMBRANES IN A SUBJECT IN NEED THEREOF” (Amarin Pharmaceuticals Ireland Limited, priority 2018, published 2019)

Assays:
Format in all cases: biochemical
[1] = Lipid hydroperoxide (LOOH) formation in cholesterol-enriched model membranes under autoxidation (Example 3); settings: EPA:lipids 1:30; C/P 0.6:1; autoxidation 37° C., 72 hours
Description: Levels of lipid hydroperoxides were also measured in cholesterol-enriched membrane prepared in the absence of EPA as a control. […] CHOD-iodide color reagent (stock) was prepared according to a procedure modified from El-Saadani et […], Goher […], Jurgens G. A spectrophotometric assay for lipid peroxides in serum lipoproteins using commercially available reagent. (J. Lipid. […] Membrane samples consisting of DLPC±cholesterol were prepared as follows. Component lipids (in chloroform) were transferred to 13×100 mm test tubes and shell-dried under a steady stream of nitrogen gas while vortex mixing. The lipid was co-dried with EPA. Residual solvent was removed by drying for a minimum of 3 h under vacuum. After desiccation, each membrane sample was resuspended in diffraction buffer (0.5 mM HEPES, 154 mM NaCl, pH 7.3) to yield a final phospholipid concentration of 1.0 mg/mL. Multilamellar vesicles (MLV) were formed by vortex mixing for 3 minutes at ambient temperature. […] Absorbances were measured against a CHOD blank at 365 nm using a Beckman DU-640 spectrophotometer. The CHOD colorimetric assay is based on the oxidation of iodide (I^-) by lipid hydroperoxides (LOOH) and proceeds according to the following reaction scheme: The quantity of triiodide anion (I3^-) liberated in this reaction is directly proportional to the amount of lipid hydroperoxides present in the membrane sample.

[2] = system: human sdLDL; assay: Copper-induced sdLDL oxidation (Example 12); settings: 10.0 μM; copper-induced oxidation 1 hour
Description: All samples, with the exception of non-oxidized sdLDL controls, were subjected to copper-induced oxidation for 1 hour. Human umbilical vein endothelial cells (HUVECs) were incubated with the various sdLDL samples, stimulated with calcium, and monitored for nitric oxide (NO) and peroxynitrite (ONOO^−) release using nanosensor technology.

[3] = system: human sdLDL; assay: Copper-induced sdLDL oxidation with fatty acids, TBARS/MDA (Example 14); settings: 1.0 μM
Description: Venous blood was collected from healthy volunteers into vacutainer tubes. Plasma was separated by centrifugation at 3000 g for 25 min at 4° C. and adjusted to a density of 1.020 g/mL with KBr. sdLDL was isolated from the plasma of healthy volunteers by iodixanol density gradient ultracentrifugation and adjusted to a final apolipoprotein concentration of 2 mg/mL. An aliquot of sdLDL (50 μL) was incubated with either 10 μL vehicle (ethanol) or 10 μL FA (EPA, ETE, AA, EA, DHA, DPA, ALA, LA or SA) treatment stock solution (100 μM) for 30 min at 37° C. Oxidation was initiated with addition of initiator CuSO4 (10.0 μM). At certain time points (0, 40, 60, and 120 minutes), […] were removed from each subfraction and combined with 1.0 mL thiobarbituric acid (0.5%), 10 μL trichloroacetic acid (10%), 10 μL butylated hydroxytoluene (BHT; 35 mM in ethanol), and 10 μL ethylenediaminetetraacetic acid (EDTA; 5 mM). Sample aliquots were incubated at 100° C. for 30 min and then assayed for the formation of thiobarbituric acid reactive substances (TBARS), which have a molar absorptivity (ε) value of 1.56×105 M^−1 cm^−1 at 532 nm and are largely derived from the reaction of thiobarbituric acid with MDA, a reactive aldehyde produced by sdLDL oxidation. Sample TBARS concentrations were determined spectrophotometrically by measuring sample absorbances against a standard curve derived from the hydrolysis of 1,1,3,3-tetramethoxypropane.

[4] = system: Human sdLDL particles; assay: Kinetic model of MDA formation in sdLDL oxidation (Example 15)
Description: Human sdLDL particles were isolated and incubated in vitro with vehicle or with varying concentrations of EPA, DHA, or EPA and DHA. Once incubated, copper sulfate (CuSO4) was added to induce oxidation of the sdLDL particles. The sdLDL particles were then assayed for the detection of malondialdehyde (MDA), a known marker of oxidation.
Various kinetic models were evaluated and eventually fit to the sdLDL oxidation data to describe the concentration of MDA in each sample. Both population parameter estimates and associated variabilities were generated for the formation of MDA (Kf) and degradation of MDA (Ke) rates.
The final kinetic model is a 1 compartment model having a first order Ke and an additive first order Kf.

## CC/C=C\C/C=C\C/C=C\C/C=C\C/C=C\CCCC(=O)O [EPA, cis-5,8,11,14,17-eicosapentaenoic acid]
[1]
  LOOH levels: 728 ± 30 µM
  reduction of LOOH levels compared to untreated controls: greater than 90%
[2]
  reduction of sdLDL oxidation compared to vehicle: > 90%
[3]; 40 minutes
  inhibition of lipoprotein oxidation versus vehicle: 70%
[3]; 60 minutes
  inhibition of oxidation compared to vehicle: 44%
[3]; time point 0 min
  MDA Equivalents (Mean ± SD): 0.30 ± 0.04 µM
[3]; time point 40 min
  MDA Equivalents (Mean ± SD): 3.14 ± 0.19 µM
[3]; time point 60 min
  MDA Equivalents (Mean ± SD): 6.42 ± 0.24 µM
[3]; time point 120 min
  MDA Equivalents (Mean ± SD): 12.46 ± 0.75 µM
[4]; 5 μM, after 8 hours
  reduction of Kf (formation rate of MDA): 54%
[4]; 10 μM alone, predicted
  reduction of Kf predicted by the kinetic model: 73%
